Like-named read-outs stand apart in the source and are kept apart here.
Columns and labels:
[1] = system: angiogenesis induced by hFGF-B in the CAM; assay: Chick chorioallantoic membrane (CAM) assay, 14C-proline incorporation into collagenous protein; assay type: in vivo, chick embryo
Method: BTO-964 [methyl 3,5-diiodo-4(4'-methoxyphenoxy) benzaldehyde], and BTO-967 [methyl 3,5-diiodo-4(4'-methoxyphenoxy)-thiobenzoate] were tested in the CAm assay. The endpoint of the CAM assay was a quantiative determination of basement membrane biosynthesis by measuring the incorporation of ^14 C-proline into Type IV collagenous protein.
The CAM assay involves the development of live chick embryos in Petri dishes under special sterile conditions. Therefore, only limited numbers of embryos can be used for evaluation of compounds in a single experiment. BTO-964 and BTO-967 was tested in separate assays. A known angiogenesis inhibitor, 2-methoxyestradiol (2-ME), was used as the positive control, and human fibroblast growth factor (hFGF) was used to induce angiogenesis in the CAM.
For testing, a minimum amount of acetone-methanol (1:1) was added to the test compounds for sterilization. The acetone-methanol mixture was then evaporated to dryness in a sterile hood. The compounds were dissolved in dimethyl sulfoxide (DMSO) first and then diluted with saline containing methylcellulose. The final concentrations were 2% DMSO and 0.5% methylcellulose. all test solutions were added to each CAM in […] aliquots.
Fresh fertile eggs were incubated for three days in a standard egg incubator. On Day 3, eggs were cracked under sterile conditions and embryos were placed in 20×100 mm plastic Petri dishes and cultivated at 37° C. in an embryo incubator with a water reservoir on the bottom shelf. Air was continuously bubbled into the water reservoir by using a small pump so that the humidity in the incubator was kept constant. Observations were made daily to ensure that all embryos were healthy. Dead or unhealthy embryos were removed from the incubator immediately to avoid contamination. On Day 9, a sterile silicone ring cup was placed on each CAM and 0.5 mCi of ^14 C-proline with or without the test compound plus 2.5 ng of hFGF dissolved in saline containing 0.5% methylcellulose was delivered into each ring cup in a sterile hood. 2-ME was tested in parallel to serve as a reference compound. After addition of test materials, the embryos were returned to the incubator and cultivation continued. On Day 12, all embryos were transferred to a cold room at 4-10° C.
Using the procedure outlined in Maragoudakis, et al., (1989) J. Pharm. Exp. Ther. 251:679-682, the embryos were placed on ice and a piece of CAM 10 mm in diameter was cut off under each ring cup and placed in a separate tube. To each tube was added 1.0 ml of phosphate-buffered saline (PBS, pH 7.3) containing 0.11 mg cycloheximide and 0.17 mg dipyridyl. The tubes were placed in a boiling water bath for 10 min and then cooled to room temperature. The PBS in each tube was discarded after centrifugation at 3000×G for 10 min. The CAM residue was washed once with 3 ml of 15% TCA and then three times with 3 ml of 5% TCA. Centrifugation was carried out as described above between each washing. At this point all non-protein bound radioactivity was removed, and the CAM containing the newly synthesized ^14 C-collagenous protein was suspended in 0.9 ml of 0.1 N NaOH and 1.1 ml of HEPES buffer at pH 7.4. The pH of the sample was neutralized with 0.8 N HCl, using phenol red as indicator.
To digest the ^14 C-collagenous protein, 7.5 units of collagenase and 500 nmol of calcium chloride in […] of HEPES buffer was added to the above samples, and mixtures were incubated at 37° C. for 4 h. The reaction was stopped by adding 1.0 ml of 20% TCA containing 5 mg of tannic acid into each tube. After vortex mixing, the samples were centrifuged at 3000×G for 10 min. An aliquot of the clear supernatant was taken for scintillation counting to quantitate the radiolabeled tripeptides corresponding to basement membrane collagen and other collagenous materials synthesized by the CAM from ^14 C-proline. The CAM pellets in each tube were solubilized in 0.5 ml of 1.0 N NaOH by boiling in a water bath for 5 min. […]

[2] = system: A549 (non-small cell lung); assay: In vitro cytotoxicity screen, alamar Blue assay; assay type: cell-based; details: Homo sapiens
Method: (§1) Human tumor cell lines were exposed continuously to varying concentrations of test agents, i.e., BTO-956, BTO-964, BTO966 and BTO-967) and the viability of the cells was measured at set time points (1, 3, and 7 days) using the alamar Blue™ assay. […] This fluorescence can be measured with a fluorimeter, whereby the signal is directly proportional to cell number.
(§2) Various tumor cell lines of human origin representing a wide diversity of cancer pheno- and genotypes were exposed in vitro to the agents to evaluate the drug's effective range. Tumor lines screened included MDA MB 231 (breast), MCF-7 (breast), MDA MB 468 (breast), Siha (squamous cell carcinoma), A549 (non-small cell lung), HL-60 (leukemia), Ovcar-3 (ovarian). The test agents were prepared in serial dilutions from 10 mM stock solutions in DMSO yielding a 66-fold dose range of 20 μM, 10 μM, 3 μM, 1 μM and 0.3 μM concentrations. In each case, cells were maintained at 37° C. under 5 percent CO2 in air. All cell lines were incubated in Dulbecco's modified Eagle medium (DMEM) supplemented with 10% heat-inactivated fetal bovine serum and graded doses of BTO-956, 964, 966, or 967. 5-Fluorouracil (5-FU) was included as a positive control in experiments with two of the cell lines. The experiments were conducted in 96-well tissue culture plates (Falcon) with an initial seeding density of 1000 cells per well in 250 μl aliquots. The next day, medium was replaced with 100 μl of drug dilutions in triplicate.
(§3) After a 7 day exposure to the various agents, the alamarBlue dye was diluted to 20% in DMEM, and 100 μl was added to each well. The cells were incubated for 8 hours until obvious color changes indicated sufficient amounts of reduced dye for quantitation. Relative cell number was evaluated by florimetry on a Millipore 2300 CytoFluor fluorescence measurement system. Measurements were taken directly from 96-well plates after excitation at 560 nm with concomitant emission at 590 nm.

[3] = system: MDA MB 231 (breast); assay: In vitro cytotoxicity screen, alamar Blue assay; assay type: cell-based; details: Homo sapiens
Method: as §1, §2, §3

[4] = system: Human leukemia (HL60) cells; assay: In vitro metabolism in human leukemia cells with and without rat liver S9; assay type: cell-based; details: 4 hr incubation with vs without rat liver S9, cells counted 3 days later (FIG. 2)
Method: FIG. 2 illustrates the in vitro metabolism of BTO-956, 964, 966, and 967 in human leukemia cells. In this experiments, human leukemia cells (HL60) were incubated for 4 hours in the presence of BTO-956, BTO-964, BTO-966 or BTO-967, with (closed symbols) and without (open symbols) rat liver microsome fraction S9. Following the 4 hr exposure to drug and S9, the cells were rinsed and replated at a density of 2×10^5 cells per ml, and counted 3 days later.
To test for either of these possibilities, the compounds, i.e., BTO-956, BTO-964, BTO-966 and BTO-967, were incubated with a microsomal enzyme fraction, referred to as S9.
Human leukemia (HL60) cells were used to evaluate drug metabolism. Exposure to the test article was performed in the presence and absence of S9, prepared from the liver of adult male rats given a single intraperitoneal injection of Arachlor 1254 (500 mg/kg). The S9 consisted of the 9000×G supernatant of liver homogenized in 0.25 M sucrose-100 mM phosphate buffer (pH 7.4) (Molecular Toxicology, Inc.). Cofactors were 1 mM NADP and 5 mM sodium isocitrate. On the day of exposure, cultures of cells, with or without the metabolism mixture, were incubated for 4 hours in RPMI containing 5% FBS and graded doses of BTO956, 964, 966, or 967. The test agents were prepared in serial dilutions from 10 mM stock solutions in DMSO yielding a dose range 100 μM, 50 μM, 25 μM, 10 μM and 5 μM concentrations and a final DMSO concentration of 1%. In each case, cells were maintained at 37° C. under 5 percent CO2 in air. The experiments were conducted in 6-well tissue culture plates (Falcon) with an initial seeding density of 2×10^6 cells per well in 2 ml aliquots. The test compounds were added immediately to the medium in duplicate cultures. Treatment solution was removed by a series of low-speed centrifugations to pellet the cells, followed by removal of the supernatant and resuspension of cells in fresh RPMI containing 10% FBS.

[5] = system: MDA MB 468 (breast); assay: In vitro cytotoxicity screen, alamar Blue assay; assay type: cell-based; details: Homo sapiens, 168 h, 7 days post exposure
Method: as §1, §2, §3

[6] = system: Siha (squamous cell carcinoma); assay: In vitro cytotoxicity screen, alamar Blue assay; assay type: cell-based; details: Homo sapiens, 168 h, 7 days post exposure
Method: as §1, §2, §3

[7] = system: Ovcar-3 (ovarian); assay: In vitro cytotoxicity screen, alamar Blue assay; assay type: cell-based; details: Homo sapiens, 168 h, 7 days post exposure
Method: as §1, §2, §3

[8] = system: MCF-7 (breast); assay: In vitro cytotoxicity screen, alamar Blue assay; assay type: cell-based; details: Homo sapiens, MCF7, 168 h, 7 days post exposure
Method: as §1, §2, §3

[9] = system: TNF-α mRNA; details: 10 μM, without LPS
Method: (§4) The murine macrophage PU5-1.8 cell line are purchased from the American Type Culture Collection (ATCC, Rockville, Md.). Cells are grown in DMEM medium supplemented with 100 mM sodium pyruvate, 0.1 mM nonessential amino acids, 2 mM glutamine and 5 % fetal bovine serum (Life Technologies, Staten Island, N.Y.). Cells are maintained in a humidified atmosphere of 5% CO2 -95% air at 37° C. Cells are passaged twice weekly by firmly tapping the side of the flask to dislodge the adherent cells. Both nonadherent and adherent cells are passaged. Exponentially growing cells are seeded at 5×10^5 /mL, 4 mL per 60-mm dish 24 h prior to the experiment. Test compounds are delivered in 1 mL volumes of the medium added to each dish at the start of the experiment. All dishes are incubated at 37° C. in 5% CO2 -95% air for 3 h.
(§5) The Tumor Necrosis Factor (TNF-α) cDNA is obtained from the ATCC (Rockville, Md.). [α-^32 P]-dCTP (250 μCi) and nylon membranes (Hybond N) are obtained from Amersham (Arlington Heights, Ill.). […] Lipopolysaccharide (LPS) from Escherichia coli is purchased from DIFCO Laboratories (Detroit, Mich.). All plastic supplies are purchased from VWR Scientific products (San Francisco, Calif.). […]
(§6) Hybridized bands are quantified by analyzing the images obtained by using a video densitometer (Applied Imaging Corporation, Santa Clara, Calif.). […]

[10] = system: TNF-α mRNA; assay: cells; details: Mus musculus, Macrophage, 3 h, read-out: inhibition of TNF-α mRNA accumulation
Method: as §4, §5, §6

[11] = 168 h, A549, 7 days post exposure, read-out: IC50
[12] = 168 h, MDA MB 231, 7 days post exposure, read-out: IC50

## COc1cc2c(cc1O)CC[C@@H]1[C@@H]2CC[C@]2(C)[C@@H](O)CC[C@@H]12 [2-Methoxyestradiol, 2-methoxyestradiol, reference compound]
[1]; 8.3 μg/CAM, BTO-964 experiment
  % Inhibition: 6%
[1]; 8.3 μg/CAM, BTO-964 experiment, control 11200 ± 829
  14C-Proline Incorporated into Collagenous Protein (cpm/mg protein) (mean ± S.E.): 10499 ± 1372 cpm/mg_protein
[1]; 8.3 μg/CAM, BTO-967 experiment
  % Inhibition: 9%
[1]; 8.3 μg/CAM, BTO-967 experiment, control 6300 ± 696
  14C-Proline Incorporated into Collagenous Protein (cpm/mg protein) (mean ± S.E.): 5711 ± 1469 cpm/mg_protein
[1]; 25 μg/CAM, BTO-964 experiment
  % Inhibition: 35%
[1]; 25 μg/CAM, BTO-964 experiment, control 11200 ± 829
  14C-Proline Incorporated into Collagenous Protein (cpm/mg protein) (mean ± S.E.): 7303 ± 1424 cpm/mg_protein
[1]; 25 μg/CAM, BTO-967 experiment
  % Inhibition: 20%
[1]; 25 μg/CAM, BTO-967 experiment, control 6300 ± 696
  14C-Proline Incorporated into Collagenous Protein (cpm/mg protein) (mean ± S.E.): 5068 ± 1609 cpm/mg_protein
[1]; 75 μg/CAM, BTO-964 experiment
  % Inhibition: 38%
[1]; 75 μg/CAM, BTO-964 experiment, control 11200 ± 829
  14C-Proline Incorporated into Collagenous Protein (cpm/mg protein) (mean ± S.E.): 6984 ± 1022 cpm/mg_protein
[1]; 75 μg/CAM, BTO-967 experiment
  % Inhibition: 38%
[1]; 75 μg/CAM, BTO-967 experiment, control 6300 ± 696
  14C-Proline Incorporated into Collagenous Protein (cpm/mg protein) (mean ± S.E.): 3875 ± 891 cpm/mg_protein

## O=c1[nH]cc(F)c(=O)[nH]1 [5-FU, 5-Fluorouracil, reference compound]
[2]; A549, 168 h
  IC50: 5.5 µM
[3]; MDA-MB-231, 168 h
  IC50: 10 µM

## COC(=O)c1cc(I)c(Oc2ccc(OC)cc2)c(I)c1 [BTO-956, methyl 3,5-diiodo-4-(4'-methoxyphenoxy)benzoate]
[4]
  effect of metabolism by S9 on activity: metabolized within the 4-hr incubation period to an inactive form
[2]; [11]
  IC50: 4 µM
[5]
  IC50: 0.5 µM
[6]
  IC50: 500 nM
[7]
  IC50: < 0.3 µM
[3]; [12]
  IC50: 10 µM
[8]
  IC50: 5 µM

## COCc1cc(I)c(Oc2ccc(OC)cc2)c(I)c1 [BTO-966, 3,5-diiodo-4-(4'-methoxyphenoxy)benzyl methyl ether]
[4]
  effect of metabolism by S9 on activity: activated to more cytotoxic products
[2]; [11]
  IC50: > 30 µM
[5]
  IC50: 7.5 µM
[6]
  IC50: > 20000 nM
[7]
  IC50: 6.9 µM
[3]; [12]
  IC50: 10 µM
[8]
  IC50: 7 µM

## COc1cc2c(c(OC)c1OC)-c1ccc(OC)c(=O)cc1[C@@H](NC(C)=O)CC2 [colchicine, Colchicine]
[9]
  effect on TNF-α mRNA expression: no effect
[10]
  inhibition at 10 µM: 68%

Reference: patent US6169104A, “Di-aryl ethers and their derivatives as anti-cancer agents” (Large Scale Biology Corporation, priority 1998, dated 2001)
